Data reported in patent publication US8772299B2, “Phenyl piperazine compounds, pharmaceutical composition including the same and use thereof” (SK Biopharmaceuticals Co., Ltd., priority 2008, dated 2014).
Where a name gives a salt, the structure may show the parent alone.

Key:
mice [1] = assay: Anti-Marble Burying Behavior Test in Mice; assay type: in vivo; conditions: Mus musculus, reduction in number of marbles buried, ip
Text: Marble burying was developed and validated as a pre-clinical assay of potential anxiolytic activity (Andrews and Broekkamp (1993). Procedures to Identify Anxiolytic or Anxiogenic agents. In Behavioural Neuroscience, ed. A Sahgal, pp. 37-54. IRL Press, Oxford). The marble burying test places a naive mouse into a novel environment containing 25 marbles (arranged on top of a sawdust surface). A reduction in the number of marbles buried by the mouse was hypothesized to be an anxiolytic-like effect.

mice [2] = assay: Tail Suspension Test in Mice (TST); assay type: in vivo; conditions: reduction in immobility vs control group, po; for % reduction: 30 mg/kg; for inhibition in vivo at 1 mg/kg: Mus musculus
Text: Tail Suspension Test in mice is the well-known animal model to determine antidepressant efficacy of compounds by checking escaping behavior and immobility time of mice. Mice treated with antidepressant drug show escaping behavior continuously comparing with control group.
The mice were mainly treated orally with the test compound dissolved in 30% PEG400 or with only 30% PEG400 as control. Tail of mouse is suspended to the rod of TST equipment and end of tail is fixed with sticky tape. Suspended mouse is incubated during 2 min for training and adaptation and after following 2 min, observe escaping behavior and check immobility time for 4 min. The potent ability of the compounds was determined as percent value of reduction in immobility comparing to control group as 100% baseline.

[3] = target: T1, Serotonin 1A (5-HT1A) receptor (Rattus norvegicus, UniProt P19327); assay: Serotonin 1A (5-HT1A) receptor inhibition assay, [3H]8-OH-DPAT binding to rat cortex membranes; design: species or system Sprague-Dawley (SD) rats; conditions: 10 nM test compound; 0.92 nM [3H]8-OH-DPAT; rat cortex homogenate; 60 min at 25° C.
T1 construct: The cortex tissue were homogenized in 30 volumes of ice-cold 50 mM Tris-HCl buffer; from tissue; host or cells: Sprague-Dawley rat brain cortex membranes
T1 sequence (P19327 1-422): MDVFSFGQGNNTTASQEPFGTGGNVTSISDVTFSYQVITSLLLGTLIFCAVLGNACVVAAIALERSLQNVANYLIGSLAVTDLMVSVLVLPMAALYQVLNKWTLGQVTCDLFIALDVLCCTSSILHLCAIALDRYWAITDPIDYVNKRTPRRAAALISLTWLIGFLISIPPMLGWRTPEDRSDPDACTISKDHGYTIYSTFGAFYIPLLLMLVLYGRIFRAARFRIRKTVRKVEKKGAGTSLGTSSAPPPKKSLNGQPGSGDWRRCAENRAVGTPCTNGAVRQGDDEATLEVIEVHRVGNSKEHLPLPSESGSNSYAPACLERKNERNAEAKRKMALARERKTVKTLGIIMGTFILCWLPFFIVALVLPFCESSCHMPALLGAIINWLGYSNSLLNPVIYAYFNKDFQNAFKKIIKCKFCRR
Protocol: The method to test the ability of compounds to inhibit serotonin 1A(5-HT1A) receptors was using Hall. et al., J Neuro Chem., 1985, 44, p 1685-1696 with modification.
The Sprague-Dawley (SD) rats were killed by decapitation and their brains rapidly removed at 4° C. The cortex tissue were homogenized in 30 volumes of ice-cold 50 mM Tris-HCl buffer (pH7.4) using an ultra-turrax T8 and centrifuged at 48,000 g for 20 min. The supernatant was discarded and the pellet washed twice by resuspension in 20 volumes Tris-HCl and centrifugation, homogenized in 20 volumes Tris-HCl, and incubated at 37° C. for 10 min. Membranes were than collected by centrifugation and washed twice before final resuspension in 10 volumes of 50 mM Tris-HCl, pH7.4.
For binding assays, the incubation medium consisted of 162.5 ug of tissue homogenate, 0.92 nM of [3H]8-OH-DPAT and vehicle or 10 uM of 5-HT or 10 nM of test compounds per well. 5-HT and test compounds were dissolved in distilled water and incubation medium was 50 mM Tris(pH7.4 at room temperature). The assay plates (96 well) were incubated for 60 min at 25° C. The reaction was terminated by rapid filtration using a Tomtec harvester, through GF/C glassfibre filter with 5 times washes of Tris buffer. The radioactivity retained on the filters was counted by scintillation spectroscopy (MicroBeta TriLux, Wallac). The tests were triplicates. Percent inhibition was calculated as below equation.
Total binding is the value of vehicle treated group and specific binding is the values that deduct non-specific binding (i.e. the value of non-specific ligand, 5-HT).

Compound	inhibition at 0.01 µM [3] [%]	inhibition in vivo at 3 mg/kg (mice [1]) [%]	inhibition in vivo at 1 mg/kg (mice [2]) [%]	other results
O=C1CC2(CCCC2)CC(=O)N1CCCCN1CCN(c2ncccn2)CC1 [Buspirone, reference compound]	–	–	–	inhibition in vivo at 20 mg/kg (mice [1]; 20 mg/kg): 56%
CN(C)CCC[C@@]1(c2ccc(F)cc2)OCc2cc(C#N)ccc21 [Estalopram, reference compound]	–	–	–	% reduction (mice [2]): 47, at 30 mg/kg, po %
COc1ccccc1N1CCN(CCCCOc2cccc(Cn3ccnc3)c2)CC1 [Example 5, 1-[4-(3-imidazol-1-ylmethyl-phenoxy)-butyl]-4-(2-methoxy-phenyl)-piperazine-hydrochloride]	50.7	–	21.2	inhibition in vivo at 7.5 mg/kg (mice [1]): 60.3%
COc1ccccc1N1CCN(CCCCOc2cccc(Cn3cnnn3)c2)CC1 [Example 7, 1-(2-methoxy-phenyl)-4-[4-(3-tetrazol-1-ylmethyl-phenoxy)-butyl]-piperazine hydrochloride]	78.4	–	21.1	inhibition in vivo at 7.5 mg/kg (mice [1]): 61.1%
COc1ccccc1N1CCN(CCCCOc2ccc(CN(C)C)cc2)CC1 [Example 19, (4-{4-[4-(2-methoxy-phenyl)-piperazin-1-yl]-butoxy}-benzyl)-dimethyl-amine dihydrochloride]	59.6	–	50.6	inhibition in vivo at 7.5 mg/kg (mice [1]): 50.8%
COc1ccccc1N1CCN(CCCCOc2ccc(CN3CCCCC3)cc2)CC1 [Example 20, 1-(2-methoxy-phenyl)-4-[4-(4-piperidin-1-ylmethyl-phenoxy)-butyl]-piperazine]	68.5	–	–	inhibition in vivo at 7.5 mg/kg (mice [1]): 27%
COc1ccccc1N1CCN(CCCCOc2ccc(CNc3ccccc3)cc2)CC1 [Example 21, (4-{4-[4-(2-methoxy-phenyl)-piperazin-1-yl]-butoxy}-benzyl)-phenyl-amine]	38.2	29.9	–	–
COc1ccccc1N1CCN(CCCCOc2cccc(Cn3nccn3)c2)CC1 [Example 24, 1-(2-methoxy-phenyl)-4-[4-(3-[1,2,3]triazol-2-ylmethyl-phenoxy)-butyl]-piperazine]	51.6	62.6	–	–
COc1ccccc1N1CCN(CCCCOc2cccc(CN(C)C)c2)CC1 [Example 28, (3-{4-[4-(2-methoxy-phenyl)-piperazin-1-yl]-butoxy}-benzyl)-dimethyl-amine]	13.5	24.6	–	–
COc1ccccc1N1CCN(CCCCOc2ccc(CN3CCOCC3)cc2)CC1 [Example 32, 4-(4-{4-[4-(2-methoxy-phenyl)-piperazin-1-yl]-butoxy}-benzyl)-morpholine]	–	–	–	inhibition in vivo at 7.5 mg/kg (mice [1]): 27.8%
CN(C)Cc1ccc(OCCCCN2CCN(c3ccccc3Cl)CC2)cc1 [Example 33, (4-{4-[4-(2-Chloro-phenyl)-piperazin-1-yl]-butoxy}-benzyl)-dimethyl-amine]	53.7	–	26.8	–
CN(C)Cc1ccc(OCCCCN2CCN(c3cccc(Cl)c3Cl)CC2)cc1 [Example 39, (4-{4-[4-(2,3-dichloro-phenyl)-piperazin-1-yl]-butoxy}-benzyl)-dimethyl-amine]	52.9	–	30.4	–
Clc1cccc(N2CCN(CCCCOc3ccc(CN4CCOCC4)cc3)CC2)c1Cl [Example 40, 4-(4-{4-[4-(2,3-Dichloro-phenyl)-piperazin-1-yl]-butoxy}-benzyl)-morpholine]	45.6	–	10.6	–
COc1ccccc1N1CCN(CCCCOc2ccc(CCn3ccnc3)cc2)CC1 [Example 47, 1-{4-[4-(2-imidazol-1-yl-ethyl)-phenoxy]-butyl}-4-(2-methoxy-phenyl)-piperazine]	70	39.3	–	–
CNCCC(Oc1ccc(C(F)(F)F)cc1)c1ccccc1 (centres unmarked) [Fluxetine, reference compound]	–	–	–	% reduction (mice [2]): 49. at 30 mg/kg, po %

Further lines, with some results ahead:

inhibition at 0.01 µM [3] [%]	Compound	inhibition in vivo at 3 mg/kg (mice [1]) [%]	inhibition in vivo at 1 mg/kg (mice [2]) [%]	other results
83.1	COc1ccccc1N1CCN(CCCCOc2ccc(Cn3ccnc3)cc2)CC1 [Example 1, 1-[4-(4-imidazol-1-ylmethyl-phenoxy)-butyl]-4-(2-methoxy-phenyl)-piperazine]	28.7	–	–
80.3	COc1ccccc1N1CCN(CCCCOc2ccc(Cn3cncn3)cc2)CC1 [Example 2, 1-(2-methoxy-phenyl)-4-[4-(4-[1,2,4]triazol-1-ylmethyl-phenoxy)-butyl]-piperazine]	93.3	–	–
81.6	COc1ccccc1N1CCN(CCCCOc2cccc(Cn3ncnn3)c2)CC1 [Example 8, 1-(2-methoxy-phenyl)-4-[4-(3-tetrazol-2-ylmethyl-phenoxy)-butyl]-piperazine hydrochloride]	–	19.6	–
61.8	COc1ccccc1N1CCN(CCCCOc2ccc(Cn3nccn3)cc2)CC1 [Example 11, 1-(2-methoxy-phenyl)-4-[4-(4-[1,2,3]triazol-2-ylmethyl-phenoxy)-butyl]-piperazine]	–	25	inhibition in vivo at 7.5 mg/kg (mice [1]): 69%
60.9	COc1ccccc1N1CCN(CCCCOc2ccc(Cn3ccnn3)cc2)CC1 [Example 12, 1-(2-methoxy-phenyl)-4-[4-(4-[1,2,3]triazol-1-ylmethyl-phenoxy)-butyl]-piperazine]	97.3	12.7	–
69.5	COc1ccccc1N1CCN(CCCCOc2ccc(Cn3nnnc3C)cc2)CC1 [Example 18, 1-(2-methoxy-phenyl)-4-{4-[4-(5-methyl-tetrazol-1-ylmethyl)-phenoxy]-butyl}-piperazine]	–	14.7	–
28.1	Clc1cccc(N2CCN(CCCCOc3ccc(Cn4ncnn4)cc3)CC2)c1Cl [Example 36, 1-(2,3-dichloro-phenyl)-4-[4-(4-tetrazol-2-ylmethyl-phenoxy)-butyl]-piperazine]	25.3	–	–
82.1	CN1CCN(Cc2ccc(OCCCCN3CCN(c4cccc(Cl)c4Cl)CC3)cc2)CC1 [Example 41]	–	14.1	–
48	COc1ccccc1N1CCN(CCCCOc2ccc(CCn3cncn3)cc2)CC1 [Example 48, 1-(2-methoxy-phenyl)-4-{4-[4-(2-[1,2,4]triazol-1-yl-ethyl)-phenoxy]-butyl}-piperazine]	31.3	26.2	–
45	COc1ccccc1N1CCN(CCCCOc2ccc(CCn3nccn3)cc2)CC1 [Example 49, 1-(2-methoxy-phenyl)-4-{4-[4-(2-[1,2,3]triazol-2-yl-ethyl)-phenoxy]-butyl}-piperazine]	–	34.3	–
62	COc1ccccc1N1CCN(CCCCOc2ccc(CCn3cnnn3)cc2)CC1 [Example 52, 1-(2-methoxy-phenyl)-4-{4-[4-(2-tetrazol-1-yl-ethyl)-phenoxy]-butyl}-piperazine]	–	26.4	–
71	COc1ccccc1N1CCN(CCCCOc2ccc(CCn3nnc(C)n3)cc2)CC1 [Example 54, 1-(2-Methoxy-phenyl)-4-(4-{4-[2-(5-methyl-tetrazol-2-yl)-ethyl]-phenoxy}-butyl)-piperazine]	–	31.8	–
